Consider two compounds from US7479507B2, “Anti-inflammatory substituted phenols and elastomeric compositions for oral delivery of drugs” (priority 2003, dated 2009).

In series [1] the test system is rat. The settings on record: cited from earlier work.
Series [2] has as its system rat. The settings on record: cited from earlier work. The source holds these as a separate data set.
Another series has as its system Chinese hamster. As to conditions: cited from earlier work.
In another series the test system is rats. As to conditions: >2.35 mg/l air aerosol, mostly (~80%) particles smaller than 7 μm; cited from earlier work.
Series [3] has as its system dogs diagnosed with arthritis or chronic or degenerative joint disease. Briefly: Owner-reported mobility of dogs with arthritis or chronic or degenerative joint disease, daily oral dosing, placebo-controlled. Format: in vivo, dog.
Method: The experiments below were performed on dogs after the informed consent of their owners was obtained. […] The specified compound was administered orally once a day with the dog's meal. […] The owners reported weekly any change in the ability of their dog to stand up, walk, run, climb and descend stairs, get on and off a bed, sofa, or chair, get into and out of a car, their limping and behavior.
The test system of another series is carp. The settings on record: 0.3-3 ppm; cited from earlier work.

As for “calcium salt of the monoethyl ester of (((3,5-bis(1,1-dimethylethyl)-4-hydroxyphenyl)methyl) phosphonic acid [Compound 1]”, the “intraperitoneal LD50” value with rat [1] is 662 mg/kg. Moreover, the “oral LD50” value with rat [2] is “exceeds 6000 mg/kg”; with Chinese hamster, “exceeds 2000 mg/kg”. Further, the “deaths after 4 hour inhalation” value in the series on rats is “no deaths”. Also, the “change in dog's condition” value was “condition continued to improve” in series [3] (Example 7, 33 lb Kelpie-mix, about 10 mg daily oral capsule, 4th week); “moved smoothly, had less difficulty getting out of the car or off the sofa, ran better and more often, and was more active” in series [3] (Example 7, 33 lb Kelpie-mix, about 10 mg daily oral capsule, after 2 weeks); “freely getting off the bed, down from the sofa and out of the car” in series [3] (Example 7, 33 lb Kelpie-mix, about 10 mg daily oral capsule, after 3 weeks); “got down the sofa and out of the car more easily” in series [3] (Example 7, 33 lb Kelpie-mix, arthritis of shoulders and elbow, about 10 mg daily oral capsule, after 1 week); “ran frequently and jumped up on the sofa without hesitation” in series [3] (Example 8, 13 lb miniature Poodle, about 10 mg daily oral capsule, after 3 weeks); “climbing and running freely” in series [3] (Example 8, 13 lb miniature Poodle, about 10 mg daily oral capsule, after 4 weeks). In addition, the “change in dog's condition” value is “climbed stairs with less hesitation and ran occasionally” in series [3] (Example 8, 13 lb miniature Poodle, unknown disease, about 10 mg daily oral capsule, after two weeks); “stood up without assistance and limped less” in series [3] (Example 9, 85 lb Labrador retriever, about 15 mg Compound 1 daily capsule and Rimadyl, after 1 week); “started to move faster, then to run” in series [3] (Example 9, 85 lb Labrador retriever, about 15 mg Compound 1 daily capsule and Rimadyl, after 3 weeks); “moved faster and was not bothered by its hips” in series [3] (Example 9, 85 lb Labrador retriever, about 15 mg Compound 1 daily capsule and Rimadyl, after two weeks); “got up and moved rapidly with ease and it's running improved” in series [3] (Example 9, 85 lb Labrador retriever, about 15 mg Compound 1 daily capsule, Rimadyl discontinued, 4th week); “stood well, limped less, and climbed the 3 stairs to and from the house” in series [3] (Example 11, 62 lb Australian cattle dog, about 10 mg Compound 1 daily capsule, after 2 weeks). Also, the “change in dog's condition” value in series [3] (Example 11, 62 lb Australian cattle dog, about 10 mg Compound 1 daily capsule, after 3 weeks) was “trotted and climbed 5 stairs”; in series [3] (Example 11, 62 lb Australian cattle dog, about 10 mg Compound 1 daily capsule, after 4 weeks), “condition was further improved”; in series [3] (Example 11, 62 lb Australian cattle dog, after 5 months untreated, about 10 mg Compound 1 daily capsule, after one week), “stood longer, walked, and enjoyed the outdoors”. In addition, the “number of dogs for which improvement was evident” value in series [3] (of 5 dogs given Compound 1) is 4 dogs. In the series with carp, the “bioconcentration (accumulation)” value is on record as “No bioconcentration (accumulation) was detected”.
In the case of `CC(C(=O)O)c1ccc2c(c1)[nH]c1ccc(Cl)cc12` (stereo not shown) [Rimadyl®, reference compound], the “change in dog's condition” value in series [3] (Example 9, 85 lb Labrador retriever, arthritis of the hips, Rimadyl alone before Compound 1) was “slightly improved the dog's condition”.
